Laboratory results published in ChEMBL document CHEMBL5149977, “FLT3 Inhibitors in Acute Myeloid Leukemia: Challenges and Recent Developments in Overcoming Resistance” (J Med Chem, 2021).

Assays:
[1] = system: MOLM-13; assay: Antiproliferative activity against human MOLM-13 cells incubated for 72 hrs by MTS assay; assay type: functional
[2] = system: MOLM-13; assay: Antiproliferative activity against drug resistant human MOLM-13 cells incubated for 72 hrs by MTS assay; assay type: functional
[3] = molecular target: Receptor-type tyrosine-protein kinase FLT3 (Homo sapiens, UniProt P36888, ITD); assay: Inhibition of FLT3-ITD (unknown origin)
[4] = system: BaF3; assay: cells; settings: Mus musculus
Description: Antiproliferative activity against mouse BaF3 cells expressing FLT3-D835Y

[5] = system: BaF3; assay: cells; settings: Mus musculus; remark: listed apart in the source
[6] = system: BaF3; assay: cells; settings: Mus musculus; remark: listed apart in the source
[7] = system: MOLM-14; assay: cells; settings: Homo sapiens
Description: Antiproliferative activity against human MOLM-14 cells

[8] = system: BaF3; assay: cells; settings: Mus musculus; remark: listed apart in the source
[9] = system: BaF3; assay: cells; settings: Mus musculus; remark: listed apart in the source
[10] = system: BaF3; assay: cells; settings: Mus musculus; remark: listed apart in the source
[11] = system: MV4-11; assay: cells; settings: Homo sapiens
[12] = molecular target: Cyclin-dependent kinase 4 (Homo sapiens, UniProt P11802); assay: Inhibition of CDK4 (unknown origin)
Cyclin-dependent kinase 4, sequence (P11802 whole entry): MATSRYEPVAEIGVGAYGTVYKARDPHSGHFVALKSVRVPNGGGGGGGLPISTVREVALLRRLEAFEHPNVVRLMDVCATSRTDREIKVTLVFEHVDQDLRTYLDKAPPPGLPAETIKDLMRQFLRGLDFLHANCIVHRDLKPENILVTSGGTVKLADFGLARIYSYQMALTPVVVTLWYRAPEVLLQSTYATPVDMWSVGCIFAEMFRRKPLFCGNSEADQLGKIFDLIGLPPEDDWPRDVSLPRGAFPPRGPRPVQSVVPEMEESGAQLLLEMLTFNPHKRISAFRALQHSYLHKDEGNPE

[13] = molecular target: Cyclin-dependent kinase 6 (Homo sapiens, UniProt Q00534); assay: Inhibition of CDK6 (unknown origin)
Cyclin-dependent kinase 6, sequence (Q00534 whole entry): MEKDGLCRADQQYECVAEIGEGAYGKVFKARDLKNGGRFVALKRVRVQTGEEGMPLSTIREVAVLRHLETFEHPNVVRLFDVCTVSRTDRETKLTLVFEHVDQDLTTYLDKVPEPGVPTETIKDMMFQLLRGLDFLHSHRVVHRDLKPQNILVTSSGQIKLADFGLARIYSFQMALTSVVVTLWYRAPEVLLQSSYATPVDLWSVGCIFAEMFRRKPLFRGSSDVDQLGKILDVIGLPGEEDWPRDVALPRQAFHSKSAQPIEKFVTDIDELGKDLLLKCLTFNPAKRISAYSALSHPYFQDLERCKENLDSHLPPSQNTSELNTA

[14] = molecular target: Cyclin-dependent kinase 2 (Homo sapiens, UniProt P24941); assay: Inhibition of CDK2 (unknown origin)
[15] = system: MV4-11; assay: Cytotoxicity against human MV4-11 cells incubated for 72 hrs; assay type: functional, cell-based; settings: MV4-11, 72 h
[16] = system: MV4-11; assay: Cytotoxicity against human MV4-11 cells […] incubated for 72 hrs; assay type: functional, cell-based; settings: MV4-11, 72 h
[17] = molecular target: Receptor-type tyrosine-protein kinase FLT3 (Homo sapiens, UniProt P36888, D835Y); assay: Binding affinity to FLT3-D835Y mutant (unknown origin) assessed as dissociation constant
[18] = molecular target: Receptor-type tyrosine-protein kinase FLT3 (Homo sapiens, UniProt P36888, D835H); assay: Binding affinity to FLT3-D835H mutant (unknown origin) assessed as dissociation constant
[19] = molecular target: T1, Receptor-type tyrosine-protein kinase FLT3 (Homo sapiens, UniProt P36888)
T1 sequence (P36888 whole entry): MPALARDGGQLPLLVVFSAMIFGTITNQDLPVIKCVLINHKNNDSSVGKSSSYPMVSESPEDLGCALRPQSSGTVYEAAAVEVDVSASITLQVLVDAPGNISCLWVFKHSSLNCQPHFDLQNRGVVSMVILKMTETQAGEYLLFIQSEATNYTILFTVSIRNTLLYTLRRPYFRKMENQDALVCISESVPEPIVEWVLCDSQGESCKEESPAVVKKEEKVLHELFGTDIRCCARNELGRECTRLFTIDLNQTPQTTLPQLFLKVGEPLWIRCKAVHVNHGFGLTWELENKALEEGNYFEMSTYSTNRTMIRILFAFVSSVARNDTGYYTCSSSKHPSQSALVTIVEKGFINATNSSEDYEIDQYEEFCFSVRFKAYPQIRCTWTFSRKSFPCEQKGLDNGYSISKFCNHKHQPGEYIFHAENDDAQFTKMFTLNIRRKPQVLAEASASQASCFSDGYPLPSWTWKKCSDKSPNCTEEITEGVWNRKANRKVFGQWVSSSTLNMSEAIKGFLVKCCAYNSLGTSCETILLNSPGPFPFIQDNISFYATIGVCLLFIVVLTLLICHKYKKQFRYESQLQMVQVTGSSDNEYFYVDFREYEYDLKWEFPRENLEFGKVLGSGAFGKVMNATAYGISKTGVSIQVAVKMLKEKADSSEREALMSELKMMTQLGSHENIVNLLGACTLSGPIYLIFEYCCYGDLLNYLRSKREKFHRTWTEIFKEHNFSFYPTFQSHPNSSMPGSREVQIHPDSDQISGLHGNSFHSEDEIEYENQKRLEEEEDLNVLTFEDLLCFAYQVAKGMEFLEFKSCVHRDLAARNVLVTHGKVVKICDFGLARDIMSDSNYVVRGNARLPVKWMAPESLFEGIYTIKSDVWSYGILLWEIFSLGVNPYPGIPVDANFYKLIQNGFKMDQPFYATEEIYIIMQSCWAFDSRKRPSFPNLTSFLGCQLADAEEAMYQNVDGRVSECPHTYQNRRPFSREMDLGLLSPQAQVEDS
Description: Inhibition of FLT3 (unknown origin)

[20] = system: MOLM-14; assay: cells; settings: Homo sapiens; remark: listed apart in the source
Description: Antiproliferative activity against human MOLM-14 cells expressing F691L

[21] = molecular target: Tyrosine-protein kinase ABL1 (Homo sapiens, UniProt P00519); assay: Inhibition of ABL1 (unknown origin)
Tyrosine-protein kinase ABL1, sequence (P00519 whole entry): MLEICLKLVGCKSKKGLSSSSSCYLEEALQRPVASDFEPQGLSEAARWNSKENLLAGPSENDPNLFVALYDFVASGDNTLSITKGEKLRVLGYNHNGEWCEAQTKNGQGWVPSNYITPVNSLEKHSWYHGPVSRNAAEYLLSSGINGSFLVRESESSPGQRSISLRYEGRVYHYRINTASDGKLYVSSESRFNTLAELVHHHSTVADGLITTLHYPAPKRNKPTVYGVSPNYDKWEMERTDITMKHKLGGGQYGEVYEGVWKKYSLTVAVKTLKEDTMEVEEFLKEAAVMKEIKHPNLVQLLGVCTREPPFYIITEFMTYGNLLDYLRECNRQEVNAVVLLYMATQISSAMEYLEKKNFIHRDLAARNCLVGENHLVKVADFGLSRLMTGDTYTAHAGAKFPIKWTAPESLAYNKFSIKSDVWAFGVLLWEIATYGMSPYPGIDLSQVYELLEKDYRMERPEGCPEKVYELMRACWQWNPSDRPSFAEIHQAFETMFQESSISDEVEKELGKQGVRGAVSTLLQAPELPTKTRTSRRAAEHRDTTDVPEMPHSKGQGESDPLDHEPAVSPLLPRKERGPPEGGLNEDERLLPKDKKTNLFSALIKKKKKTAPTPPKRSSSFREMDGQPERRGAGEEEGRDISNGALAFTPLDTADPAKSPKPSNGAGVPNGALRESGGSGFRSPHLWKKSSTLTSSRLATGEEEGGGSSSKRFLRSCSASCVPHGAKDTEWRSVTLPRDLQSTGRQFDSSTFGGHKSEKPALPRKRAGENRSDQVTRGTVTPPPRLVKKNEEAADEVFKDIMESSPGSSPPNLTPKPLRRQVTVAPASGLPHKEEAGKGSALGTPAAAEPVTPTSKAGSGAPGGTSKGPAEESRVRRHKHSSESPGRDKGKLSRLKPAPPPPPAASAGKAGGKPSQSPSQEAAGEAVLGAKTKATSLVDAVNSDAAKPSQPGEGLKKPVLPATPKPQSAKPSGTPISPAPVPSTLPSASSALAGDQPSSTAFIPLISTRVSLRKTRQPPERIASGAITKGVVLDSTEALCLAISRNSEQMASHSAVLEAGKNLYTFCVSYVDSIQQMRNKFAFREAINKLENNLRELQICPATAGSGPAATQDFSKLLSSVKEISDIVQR

[22] = molecular target: Tyrosine-protein kinase Fgr (Homo sapiens, UniProt P09769); assay: Inhibition of FGR (unknown origin)
[23] = molecular target: Platelet-derived growth factor receptor alpha (Homo sapiens, UniProt P16234); assay: Inhibition of PDGFR alpha (unknown origin)
Platelet-derived growth factor receptor alpha, sequence (P16234 whole entry): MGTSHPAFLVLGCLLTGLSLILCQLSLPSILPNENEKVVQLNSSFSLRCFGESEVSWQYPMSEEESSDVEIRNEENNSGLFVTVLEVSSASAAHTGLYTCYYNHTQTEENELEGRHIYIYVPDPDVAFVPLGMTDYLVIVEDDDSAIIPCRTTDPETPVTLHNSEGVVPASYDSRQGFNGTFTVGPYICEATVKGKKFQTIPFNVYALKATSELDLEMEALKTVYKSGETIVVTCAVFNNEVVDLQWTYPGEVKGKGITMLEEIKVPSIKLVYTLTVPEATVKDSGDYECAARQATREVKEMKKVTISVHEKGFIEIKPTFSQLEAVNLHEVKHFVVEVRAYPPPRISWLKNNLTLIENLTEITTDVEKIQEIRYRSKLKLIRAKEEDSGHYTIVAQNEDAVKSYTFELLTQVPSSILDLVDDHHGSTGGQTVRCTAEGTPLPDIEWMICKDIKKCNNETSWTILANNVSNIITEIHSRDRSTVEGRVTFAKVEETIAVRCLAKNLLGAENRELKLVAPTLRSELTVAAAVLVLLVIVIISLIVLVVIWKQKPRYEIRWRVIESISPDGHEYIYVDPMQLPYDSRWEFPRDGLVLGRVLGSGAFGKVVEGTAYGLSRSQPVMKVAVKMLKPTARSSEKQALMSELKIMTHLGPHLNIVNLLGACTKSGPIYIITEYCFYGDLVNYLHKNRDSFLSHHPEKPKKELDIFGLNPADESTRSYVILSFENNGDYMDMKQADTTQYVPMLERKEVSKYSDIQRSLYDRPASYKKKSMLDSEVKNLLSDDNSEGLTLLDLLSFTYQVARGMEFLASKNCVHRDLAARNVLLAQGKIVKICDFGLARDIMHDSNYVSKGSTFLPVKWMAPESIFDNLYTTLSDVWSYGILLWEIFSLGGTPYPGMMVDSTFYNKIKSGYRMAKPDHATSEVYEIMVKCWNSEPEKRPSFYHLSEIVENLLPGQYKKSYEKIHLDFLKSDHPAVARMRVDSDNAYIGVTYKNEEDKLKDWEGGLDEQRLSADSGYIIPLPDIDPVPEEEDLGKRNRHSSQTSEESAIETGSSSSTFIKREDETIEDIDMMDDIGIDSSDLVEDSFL

[24] = molecular target: NT-3 growth factor receptor (Homo sapiens, UniProt Q16288); assay: Inhibition of TrkC (unknown origin)
NT-3 growth factor receptor, sequence (Q16288 whole entry): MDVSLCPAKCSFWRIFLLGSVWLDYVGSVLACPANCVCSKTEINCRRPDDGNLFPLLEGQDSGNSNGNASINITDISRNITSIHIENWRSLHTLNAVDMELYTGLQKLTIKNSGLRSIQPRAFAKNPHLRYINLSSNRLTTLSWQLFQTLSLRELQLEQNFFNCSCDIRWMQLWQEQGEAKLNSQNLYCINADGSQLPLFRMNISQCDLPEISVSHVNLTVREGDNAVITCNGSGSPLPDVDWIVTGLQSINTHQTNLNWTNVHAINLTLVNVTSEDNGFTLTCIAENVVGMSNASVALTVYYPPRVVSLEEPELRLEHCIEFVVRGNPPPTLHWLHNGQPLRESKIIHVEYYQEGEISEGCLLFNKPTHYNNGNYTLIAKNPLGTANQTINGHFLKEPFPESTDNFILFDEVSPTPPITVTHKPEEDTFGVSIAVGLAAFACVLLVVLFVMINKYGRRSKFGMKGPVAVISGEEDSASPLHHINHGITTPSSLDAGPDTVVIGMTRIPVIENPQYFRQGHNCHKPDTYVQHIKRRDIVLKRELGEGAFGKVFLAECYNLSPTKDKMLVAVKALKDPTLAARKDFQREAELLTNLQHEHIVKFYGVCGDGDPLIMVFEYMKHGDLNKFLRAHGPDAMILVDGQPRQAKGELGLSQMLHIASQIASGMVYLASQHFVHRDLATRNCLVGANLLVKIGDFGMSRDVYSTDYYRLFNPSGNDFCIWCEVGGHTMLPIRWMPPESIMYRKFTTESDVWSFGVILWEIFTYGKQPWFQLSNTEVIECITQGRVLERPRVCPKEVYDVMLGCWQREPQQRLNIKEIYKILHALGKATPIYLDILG

[25] = system: BaF3; assay: Cytotoxicity against mouse BaF3 cells expressing FLT3-ITD measured after 72 hrs by cell titre glo assay; assay type: functional, cell-based; settings: BaF3, 72 h
[26] = system: BaF3; assay: Cytotoxicity against mouse BaF3 cells expressing FLT3-ITD-D835H measured after 72 hrs by cell titre glo assay; assay type: functional, cell-based; settings: BaF3, 72 h
[27] = system: BaF3; assay: Cytotoxicity against mouse BaF3 cells expressing FLT3-ITD-D835Y measured after 72 hrs by cell titre glo assay; assay type: functional, cell-based; settings: BaF3, 72 h
[28] = system: BaF3; assay: Cytotoxicity against mouse BaF3 cells expressing FLT3-ITD-F691L measured after 72 hrs by cell titre glo assay; assay type: functional, cell-based; settings: BaF3, 72 h
[29] = system: MOLM-13; assay: Cytotoxicity against human MOLM-13 cells measured after 72 hrs by cell titre glo assay; assay type: functional, cell-based; settings: MOLM-13, 72 h
[30] = system: MOLM-13; assay: Cytotoxicity against human MOLM-13 cells expressing FLT3-D835Y measured after 72 hrs by cell titre glo assay; assay type: functional, cell-based; settings: MOLM-13, 72 h
[31] = Antiproliferative activity against mouse 32D cells expressing FLT3-ITD assessed as cell growth inhibition; assay type: functional, cell-based
[32] = Antiproliferative activity against mouse 32D cells expressing FLT3-D835Y assessed as cell growth inhibition; assay type: functional, cell-based
[33] = Antiproliferative activity against mouse 32D cells expressing FLT3-D835H assessed as cell growth inhibition; assay type: functional
[34] = Antiproliferative activity against mouse 32D cells expressing FLT3-ITD-D835Y assessed as cell growth inhibition; assay type: functional
[35] = Antiproliferative activity against mouse 32D cells expressing FLT3-ITD-Y842C assessed as cell growth inhibition; assay type: functional
[36] = Antiproliferative activity against mouse 32D cells expressing FLT3-ITD-Y842H assessed as cell growth inhibition; assay type: functional
[37] = Antiproliferative activity against mouse 32D cells expressing FLT3-ITD-F691L assessed as cell growth inhibition; assay type: functional
[38] = molecular target: Leukocyte tyrosine kinase receptor (Homo sapiens) (UniProt P29376); assay: Inhibition of LTK (unknown origin)
Leukocyte tyrosine kinase receptor (Homo sapiens), sequence (P29376 whole entry): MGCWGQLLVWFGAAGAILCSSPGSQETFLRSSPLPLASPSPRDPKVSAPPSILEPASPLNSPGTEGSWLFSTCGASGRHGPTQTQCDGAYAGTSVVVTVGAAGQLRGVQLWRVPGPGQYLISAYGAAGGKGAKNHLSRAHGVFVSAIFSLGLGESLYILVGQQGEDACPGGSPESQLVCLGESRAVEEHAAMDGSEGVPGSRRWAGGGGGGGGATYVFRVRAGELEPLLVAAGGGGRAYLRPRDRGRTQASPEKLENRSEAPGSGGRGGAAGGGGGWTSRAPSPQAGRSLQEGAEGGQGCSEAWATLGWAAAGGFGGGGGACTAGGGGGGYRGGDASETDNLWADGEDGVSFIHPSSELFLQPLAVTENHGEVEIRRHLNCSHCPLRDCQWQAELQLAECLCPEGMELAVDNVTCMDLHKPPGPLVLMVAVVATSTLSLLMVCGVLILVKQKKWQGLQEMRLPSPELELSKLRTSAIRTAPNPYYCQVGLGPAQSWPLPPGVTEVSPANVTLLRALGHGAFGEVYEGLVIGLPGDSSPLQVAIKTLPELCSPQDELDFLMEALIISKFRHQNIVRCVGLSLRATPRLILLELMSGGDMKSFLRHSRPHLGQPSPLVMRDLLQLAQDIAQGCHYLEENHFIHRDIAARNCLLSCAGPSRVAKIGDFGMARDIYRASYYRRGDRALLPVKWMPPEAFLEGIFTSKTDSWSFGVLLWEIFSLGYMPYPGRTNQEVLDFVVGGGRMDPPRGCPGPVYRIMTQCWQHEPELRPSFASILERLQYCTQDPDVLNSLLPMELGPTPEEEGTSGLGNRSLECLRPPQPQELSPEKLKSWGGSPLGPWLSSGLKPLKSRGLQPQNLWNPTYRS

[39] = system: BaF3; assay: cells; settings: Mus musculus; remark: listed apart in the source
[40] = system: BaF3; assay: cells; settings: Mus musculus; remark: listed apart in the source

SMILES: Cc1nn(C)cc1-c1nc2c(N3CCN(Cc4ccc(Cl)cc4)CC3)c(Cl)cnc2[nH]1 [MOBINITINIB]
- GI50 [1]: 100 nM
- GI50 [2]: 180 nM

SMILES: COc1cc2c(Oc3ccc(NC(=O)Nc4cccc(C)c4)cc3F)ccnc2cc1OCCCN1CCOCC1
- IC50 [3]: 7 nM
- IC50 [4]: 0.19 nM
- IC50 [5]: 0.22 nM
- IC50 [6]: 1.1 nM
- IC50 [7]: 0.13 nM
- IC50 [8]: 0.17 nM
- IC50 [9]: 2.5 nM
- IC50 [10]: 22 nM
- IC50 [11]: 0.14 nM

SMILES: C[C@H]1CC[C@@H](n2c3cnccc3c3cnc(Nc4ccc5c(n4)CCN(C(=O)CO)C5)nc32)CC1
- Kd [3]: 4 nM
- IC50 [12]: 3 nM
- IC50 [13]: 8 nM
- IC50 [14]: 375 nM
- IC50 [15]: 18 nM
- IC50 [16]: 9 nM
- Kd [17]: 1 nM
- Kd [18]: 1 nM
- IC50 [19]: 1 nM

SMILES: FC(F)(F)c1ccc(CNc2ccc(Cc3c[nH]c4ncc(Cl)cc34)cn2)cn1 [PEXIDARTINIB]
- IC50 [4]: 0.19 nM
- IC50 [5]: 130 nM
- IC50 [6]: 97 nM
- IC50 [7]: 350 nM
- IC50 [20]: 670 nM
- IC50 [8]: 0.17 nM
- IC50 [9]: 2.5 nM
- IC50 [10]: 4700 nM
- IC50 [11]: 200 nM

SMILES: COc1cc2ncc(-c3cccc(NC4CCNC4)n3)n2cc1-c1cnn(C)c1 (centres undefined)
- IC50 [21]: 0.6 nM
- IC50 [22]: < 0.5 nM
- IC50 [23]: 1.1 nM
- IC50 [24]: 0.7 nM

SMILES: C1=N/C2=N/c3ccc(OCCN4CCCC4)c(c3)COC/C=C/COCc3cccc(c3)C(=C1)N2 [PACRITINIB]
- IC50 [25]: 133 nM
- IC50 [26]: 306 nM
- IC50 [27]: 434 nM
- IC50 [28]: 291 nM
- IC50 [29]: 73 nM
- IC50 [30]: 173 nM

SMILES: CCCNc1nc(Nc2ccc(C#N)cc2)ncc1C#CCCCNC(=O)[C@H](C)N(C)C(=O)/C=C/CN(C)C [FF-10101]
- IC50 [31]: 1.9 nM
- IC50 [32]: 0.32 nM
- GI50 [33]: 1.1 nM
- GI50 [34]: 0.81 nM
- GI50 [35]: 3.5 nM
- GI50 [36]: 5.3 nM
- GI50 [37]: 10 nM

SMILES: CCc1nc(C(N)=O)c(Nc2ccc(N3CCC(N4CCN(C)CC4)CC3)c(OC)c2)nc1NC1CCOCC1 [GILTERITINIB]
- IC50 [38]: 0.35 nM
- IC50 [39]: 1.8 nM
- IC50 [40]: 2.1 nM
